Test results taken from ChEMBL document CHEMBL1201862, “PubChem BioAssay data set” (2004).
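96-well plates; 48 h exposure; 5 concentrations. Endpoints by linear interpolation between flanking doses. Not reached: highest tested concentration assigned. GI50 marks 50% less growth.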 Activity calls are given as the source filed them. Rule as the data show it: active = GI50 up to about 1.1 µM and inactive = higher.

What was measured:
Assay in all cases: NCI-60 cell line screen, 48 h
MCF7 = system: MCF7
UACC-257 = system: UACC-257
COLO 205 = system: COLO 205
PC-3 = system: PC-3
HOP-62 = system: HOP-62
KM12 = system: KM12
SK-MEL-2 = system: SK-MEL-2
LOX IMVI = system: LOX IMVI
MDA-N = system: MDA-N
MDA-MB-231 = system: MDA-MB-231
ACHN = system: ACHN
OVCAR-5 = system: OVCAR-5
SR = system: SR
K562 = system: K562
Malme-3M = system: Malme-3M

Measured: GI50

O=P1(c2ccccc2)c2ccccc2CCc2ccccc21
inactive: MCF7 > 100 µM | UACC-257 > 100 µM | COLO 205 > 100 µM | PC-3 50.5 µM | HOP-62 > 100 µM | KM12 56.1 µM | SK-MEL-2 49.3 µM | LOX IMVI > 100 µM | MDA-N 38.7 µM | MDA-MB-231 80.7 µM

Cc1cccc(N2CCN(S(=O)(=O)c3ccc(Cl)cc3)C2=N)c1C
inactive: ACHN > 100 µM | MCF7 > 100 µM | OVCAR-5 > 100 µM | UACC-257 > 100 µM | SR 18.1 µM | COLO 205 > 100 µM | KM12 > 100 µM | MDA-N > 100 µM | K562 33.1 µM | MDA-MB-231 > 100 µM

CC(C)(C)C1=C(Br)C(F)(C(C)(C)C)OP1(=O)c1ccccc1 (stereo not given)
inactive: ACHN 16.5 µM | MCF7 15.8 µM | OVCAR-5 20.2 µM | UACC-257 16.7 µM | SR 11.9 µM | COLO 205 16 µM | PC-3 18 µM | HOP-62 16.3 µM | KM12 18.9 µM | SK-MEL-2 20.6 µM | LOX IMVI 19.3 µM | MDA-N 20 µM | K562 10 µM | Malme-3M 17.9 µM

Cc1cc2ncn(CC(=O)O)c2cc1C
inactive: ACHN > 100 µM | MCF7 > 100 µM | OVCAR-5 > 100 µM | UACC-257 > 100 µM | SR > 100 µM | COLO 205 > 100 µM | PC-3 > 100 µM | HOP-62 > 100 µM | KM12 > 100 µM | SK-MEL-2 > 100 µM | LOX IMVI > 100 µM | K562 > 100 µM | Malme-3M > 100 µM | MDA-MB-231 > 100 µM

CC(C)=CCC[C@@H](C)C1=C(O)C(=O)C(C)=C(c2c(I)c(=O)n(C)c(=O)n2C)C1=O
inactive: ACHN > 100 µM | MCF7 > 100 µM | OVCAR-5 > 100 µM | UACC-257 > 100 µM | COLO 205 > 100 µM | PC-3 49.7 µM | HOP-62 > 100 µM | KM12 > 100 µM | SK-MEL-2 > 100 µM | LOX IMVI > 100 µM | MDA-N > 100 µM | K562 61.9 µM | Malme-3M > 100 µM

O=C(O)c1cnc(-n2[nH]c3c(c2=O)CCCC3)[nH]c1=O
inactive: ACHN > 100 µM | OVCAR-5 > 100 µM | UACC-257 > 100 µM | SR > 100 µM | COLO 205 > 100 µM | PC-3 > 100 µM | KM12 > 100 µM | SK-MEL-2 > 100 µM | MDA-N > 100 µM | K562 > 100 µM | Malme-3M > 100 µM | MDA-MB-231 > 100 µM

CC1(C)C(O)C[C@]23CCC[C@](C)(C[C@@H](O)C12)C3 (stereo not given in full)
inactive: ACHN > 100 µM | MCF7 > 100 µM | OVCAR-5 > 100 µM | UACC-257 > 100 µM | SR > 100 µM | COLO 205 > 100 µM | PC-3 > 100 µM | HOP-62 > 100 µM | KM12 > 100 µM | SK-MEL-2 > 100 µM | LOX IMVI > 100 µM | K562 > 100 µM | Malme-3M > 100 µM

CCOC(=O)/C=C(/C(=O)OCC)n1cc(C)c(=O)n(Cc2cnnn2CCCCOC(C)=O)c1=O
inactive: ACHN 11.2 µM | MCF7 13.6 µM | OVCAR-5 19.6 µM | UACC-257 26.3 µM | COLO 205 3.54 µM | PC-3 68.5 µM | HOP-62 > 100 µM | KM12 44.2 µM | SK-MEL-2 86.9 µM | LOX IMVI 18.4 µM | MDA-N 55.3 µM | K562 18.7 µM | MDA-MB-231 64.6 µM

CC(C)(C)C(=O)Nc1c(C=O)ccc2[nH]cnc12
inactive: ACHN > 100 µM | MCF7 60.1 µM | OVCAR-5 > 100 µM | UACC-257 91.4 µM | COLO 205 > 100 µM | PC-3 74.3 µM | HOP-62 61.8 µM | KM12 80.4 µM | SK-MEL-2 > 100 µM | LOX IMVI 62.8 µM | MDA-N > 100 µM | K562 42.8 µM | MDA-MB-231 > 100 µM

COC(=O)c1csc(-c2nc(CCNC(=O)OC(C)(C)C)sc2Br)n1
inactive: ACHN > 100 µM | MCF7 > 100 µM | OVCAR-5 > 100 µM | UACC-257 > 100 µM | SR 81.8 µM | COLO 205 > 100 µM | PC-3 55.7 µM | HOP-62 > 100 µM | KM12 > 100 µM | MDA-N > 100 µM | K562 > 100 µM | Malme-3M > 100 µM

COC(=O)c1c(C(=O)OC)c2ccccn2c1-c1cc(C)cc2c1C(=O)C=CC2=O
inactive: ACHN 12.6 µM | OVCAR-5 12.1 µM | UACC-257 3.43 µM | SR 3.93 µM | COLO 205 5.22 µM | PC-3 14 µM | HOP-62 15.7 µM | KM12 > 10 µM | SK-MEL-2 12.5 µM | LOX IMVI > 10 µM | MDA-N 10.5 µM | K562 2.67 µM | Malme-3M 10.2 µM | MDA-MB-231 10.4 µM

O=C(O)CSc1cc(-c2ccccc2)nc2ccccc12
inactive: ACHN 71.1 µM | OVCAR-5 > 100 µM | UACC-257 71.9 µM | SR 27.9 µM | PC-3 35.2 µM | HOP-62 48.2 µM | KM12 30.5 µM | SK-MEL-2 26.5 µM | LOX IMVI 46 µM | MDA-N 35.6 µM | K562 33.3 µM | Malme-3M 22.8 µM | MDA-MB-231 98.9 µM

CS(=O)(=O)c1nc(-c2cc3c(c(S(C)(=O)=O)n2)CCC3)cc2c1CCCC2
inactive: ACHN 37 µM | OVCAR-5 > 100 µM | UACC-257 > 100 µM | COLO 205 > 100 µM | PC-3 > 100 µM | HOP-62 24.1 µM | KM12 > 100 µM | SK-MEL-2 24.6 µM | LOX IMVI 18.7 µM | MDA-N > 100 µM | K562 > 100 µM | MDA-MB-231 38.9 µM

COc1ccc(-n2c(=O)c3nc(S)[nH]c3n(-c3ccc(OC)cc3)c2=S)cc1
inactive: ACHN > 100 µM | MCF7 > 100 µM | OVCAR-5 > 100 µM | UACC-257 > 100 µM | SR > 100 µM | COLO 205 > 100 µM | PC-3 > 100 µM | HOP-62 > 100 µM | KM12 > 100 µM | SK-MEL-2 > 100 µM | LOX IMVI > 100 µM | K562 > 100 µM | MDA-MB-231 > 100 µM

ClCCN1CCO/C1=N/c1ccc2c(c1)CCCC2
inactive: ACHN 7.05 µM | OVCAR-5 17.3 µM | UACC-257 3.82 µM | SR 19.6 µM | COLO 205 12.2 µM | PC-3 4.44 µM | HOP-62 4.67 µM | KM12 17.9 µM | SK-MEL-2 13.7 µM | LOX IMVI 13.4 µM | MDA-N 10.8 µM | K562 6.7 µM | Malme-3M 7.19 µM | MDA-MB-231 13.4 µM
